The record followed here is patent US10543212B2, “Substituted amines for treating cardiac diseases” (Cardurion Pharmaceuticals, LLC, priority 2017, dated 2020).

Broadly, the IC50 is the concentration that gives 50% inhibition.

For the assay, the target named is T1, Full-length, GST-tagged, human CaMKIIδ (Homo sapiens, UniProt Q13557).
T1 construct: Full-Length, Glutathione-S-Transferase(GST)-Tagged, Human CaMKIIδ was purchased from Carna Biosciences; purchased Carna Biosciences 02-111
T1 sequence (Q13557 1-478 isoform Q13557-12): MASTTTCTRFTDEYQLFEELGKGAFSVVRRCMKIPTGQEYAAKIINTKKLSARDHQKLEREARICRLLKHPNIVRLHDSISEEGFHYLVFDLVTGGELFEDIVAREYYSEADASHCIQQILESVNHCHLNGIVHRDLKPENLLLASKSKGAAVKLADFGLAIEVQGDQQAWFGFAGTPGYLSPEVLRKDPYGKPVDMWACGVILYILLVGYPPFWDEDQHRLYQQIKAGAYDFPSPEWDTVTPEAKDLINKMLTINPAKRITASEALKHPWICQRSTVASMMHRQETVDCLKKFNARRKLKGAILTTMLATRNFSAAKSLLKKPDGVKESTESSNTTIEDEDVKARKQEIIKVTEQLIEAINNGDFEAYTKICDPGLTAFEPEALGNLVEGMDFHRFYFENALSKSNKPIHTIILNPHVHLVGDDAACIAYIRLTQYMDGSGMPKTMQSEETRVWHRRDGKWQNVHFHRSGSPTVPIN
The experiment in a line: CaMKIIδ binding assay (TR-FRET with BODIPY-labeled probe ligand). The settings on record: Table 2; activity class for CaMKIIδ. A digest of the protocol:
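Compounds were tested as 4-fold, eight-point series for 1 hr at room temperature, and IC50 was obtained by logistic fitting against a 3 μM parent-compound control. Signal came from displacement of a 300 nM BODIPY ligand from 0.5 nM GST-CaMKIIδ, detected via Tb-anti-GST in calmodulin/Ca2+ (pH 7.6).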
For orientation: In TR-FRET formats the signal depends on donor and acceptor labels being close together.
`COc1cc(N2CCN(C3CCOC3)CC2)ncc1Nc1ncc(-c2ccc(Cl)c(O[C@@H](C)Cn3cnnn3)c2)cn1` (stereo partly drawn) [Example 651, 5-(3-(((S)-1-(1H-tetrazol-1-yl)propan-2-yl)oxy)-4-chlorophenyl)-N-(4-methoxy-6-(4-(tetrahydrofuran-3-yl)piperazin-1-yl)pyridin-3-yl)pyrimidin-2-amine] came in with an IC50 of 0.01 to 0.1 µM. For `COc1cc(N2CCN(CC3COC3)CC2)ncc1Nc1ncc(-c2ccc(Cl)c(O[C@@H](C)Cn3cnnn3)c2)cn1` [Example 652, (S)-5-(3-((1-(1H-tetrazol-1-yl)propan-2-yl)oxy)-4-chlorophenyl)-N-(4-methoxy-6-(4-(oxetan-3-ylmethyl)piperazin-1-yl)pyridin-3-yl)pyrimidin-2-amine], the IC50 lay in the range of 0.01 to 0.1 µM.

Turning to `COc1cc(N2C[C@@H]3C[C@H]2CN3C2CCOCC2)ccc1Nc1ncc(-c2ccc(Cl)c(O[C@@H](C)Cn3cnnn3)c2)cn1` [Example 653, 5-(3-(((S)-1-(1H-tetrazol-1-yl)propan-2-yl)oxy)-4-chlorophenyl)-N-(2-methoxy-4-((1S,4S)-5-(tetrahydro-2H-pyran-4-yl)-2,5-diazabicyclo[2.2.1]heptan-2-yl)phenyl)pyrimidin-2-amine], the IC50 is 0.01 to 0.1 µM. To `COc1cc(N2CCN(C3CCOCC3)C[C@@H]2C)ccc1Nc1ncc(-c2ccc(Cl)c(O[C@@H](C)Cn3cnnn3)c2)cn1` [Example 654, 5-(3-(((S)-1-(1H-tetrazol-1-yl)propan-2-yl)oxy)-4-chlorophenyl)-N-(2-methoxy-4-((S)-2-methyl-4-(tetrahydro-2H-pyran-4-yl)piperazin-1-yl)phenyl)pyrimidin-2-amine] belongs less than 0.01 µM; to `COCCn1nc(C)cc1Nc1ncc(-c2ccc(Cl)c(O[C@@H](C)Cn3cnnn3)c2)cn1` [Example 655, (S)-5-(3-((1-(1H-tetrazol-1-yl)propan-2-yl)oxy)-4-chlorophenyl)-N-(1-(2-methoxyethyl)-3-methyl-1H-pyrazol-5-yl)pyrimidin-2-amine], not below 0.1 µM; to `COc1ccc(N2CC(CN3CCOCC3)C2)cc1Nc1ncc(-c2ccc(Cl)c(O[C@@H](C)Cn3cnnn3)c2)cn1` [Example 656, (S)-5-(3-((1-(1H-tetrazol-1-yl)propan-2-yl)oxy)-4-chlorophenyl)-N-(2-methoxy-5-(3-(morpholinomethyl)azetidin-1-yl)phenyl)pyrimidin-2-amine], less than 0.01 µM. As to `COc1nn(C2CCNCC2)cc1Nc1ncc(-c2ccc(Cl)c(O[C@@H](C)Cn3cnnn3)c2)cn1` [Example 657, (S)-5-(3-((1-(1H-tetrazol-1-yl)propan-2-yl)oxy)-4-chlorophenyl)-N-(3-methoxy-1-(piperidin-4-yl)-1H-pyrazol-4-yl)pyrimidin-2-amine], the half-inhibitory concentration (IC50) is less than 0.01 µM. The figure for `C[C@@H](Cn1cnnn1)Oc1cc(-c2cnc(Nc3cn(Cc4nc5ccccc5[nH]4)nc3C(F)(F)F)nc2)ccc1Cl` [Example 658, (S)-N-(1-((1H-benzo[d]imidazol-2-yl)methyl)-3-(trifluoromethyl)-1H-pyrazol-4-yl)-5-(3-((1-(1H-tetrazol-1-yl)propan-2-yl)oxy)-4-chlorophenyl)pyrimidin-2-amine] is 0.01 to 0.1 µM; for `Cc1cc(Nc2ncc(-c3ccc(Cl)c(O[C@@H](C)Cn4cnnn4)c3)cn2)n(CC(F)(F)F)n1` [Example 659, (S)-5-(3-((1-(1H-tetrazol-1-yl)propan-2-yl)oxy)-4-chlorophenyl)-N-(3-methyl-1-(2,2,2-trifluoroethyl)-1H-pyrazol-5-yl)pyrimidin-2-amine] it is 0.01 to 0.1 µM; for `Cc1cc(Nc2ncc(-c3ccc(Cl)c(O[C@@H](C)Cn4cnnn4)c3)cn2)n(-c2ccccn2)n1` [Example 660, (S)-5-(3-((1-(1H-tetrazol-1-yl)propan-2-yl)oxy)-4-chlorophenyl)-N-(3-methyl-1-(pyridin-2-yl)-1H-pyrazol-5-yl)pyrimidin-2-amine] it is not below 0.1 µM.

As to `COc1nn(C2CCN(C3COC3)CC2)cc1Nc1ncc(-c2ccc(Cl)c(O[C@@H](C)Cn3cnnn3)c2)cn1` [Example 661, (S)-5-(3-((1-(1H-tetrazol-1-yl)propan-2-yl)oxy)-4-chlorophenyl)-N-(3-methoxy-1-(1-(oxetan-3-yl)piperidin-4-yl)-1H-pyrazol-4-yl)pyrimidin-2-amine], the IC50 was less than 0.01 µM.

`COc1nn(C2CCN(C3CCOCC3)CC2)cc1Nc1ncc(-c2ccc(Cl)c(O[C@@H](C)Cn3cnnn3)c2)cn1` [Example 662, (S)-5-(3-((1-(1H-tetrazol-1-yl)propan-2-yl)oxy)-4-chlorophenyl)-N-(3-methoxy-1-(1-(tetrahydro-2H-pyran-4-yl)piperidin-4-yl)-1H-pyrazol-4-yl)pyrimidin-2-amine] displayed an IC50 of less than 0.01 µM. To `C[C@@H](Cn1cnnn1)Oc1cc(-c2cnc(Nc3cn(C4CCSCC4)nc3C(F)(F)F)nc2)ccc1Cl` [Example 663, (S)-5-(3-((1-(1H-tetrazol-1-yl)propan-2-yl)oxy)-4-chlorophenyl)-N-(1-(tetrahydro-2H-thiopyran-4-yl)-3-(trifluoromethyl)-1H-pyrazol-4-yl)pyrimidin-2-amine] belongs 0.01 to 0.1 µM; to `C[C@@H](Cn1cnnn1)Oc1cc(-c2cnc(Nc3cn(C4CCN(C5CCOCC5)CC4)nc3OC(F)F)nc2)ccc1Cl` [Example 664, (S)-5-(3-((1-(1H-tetrazol-1-yl)propan-2-yl)oxy)-4-chlorophenyl)-N-(3-(difluoromethoxy)-1-(1-(tetrahydro-2H-pyran-4-yl)piperidin-4-yl)-1H-pyrazol-4-yl)pyrimidin-2-amine], less than 0.01 µM. In turn, `COc1nc(N2CCCN(C(=O)OC(C)(C)C)CC2)ccc1Nc1ncc(-c2ccc(Cl)c(O[C@@H](C)Cn3cnnn3)c2)cn1` [Example 665, tert-butyl (S)-4-(5-((5-(3-((1-(1H-tetrazol-1-yl)propan-2-yl)oxy)-4-chlorophenyl)pyrimidin-2-yl)amino)-6-methoxypyridin-2-yl)-1,4-diazepane-1-carboxylate] came in with an IC50 not below 0.1 µM. The compound `COc1nc(N2CCCNCC2)ccc1Nc1ncc(-c2ccc(Cl)c(O[C@@H](C)Cn3cnnn3)c2)cn1` [Example 666, (S)-N-(6-(1,4-diazepan-1-yl)-2-methoxypyridin-3-yl)-5-(3-((1-(1H-tetrazol-1-yl)propan-2-yl)oxy)-4-chlorophenyl)pyrimidin-2-amine] showed an IC50 of less than 0.01 µM. To `COc1nc(N2CCCN(C3CCOCC3)CC2)ccc1Nc1ncc(-c2ccc(Cl)c(O[C@@H](C)Cn3cnnn3)c2)cn1` [Example 667, (S)-5-(3-((1-(1H-tetrazol-1-yl)propan-2-yl)oxy)-4-chlorophenyl)-N-(2-methoxy-6-(4-(tetrahydro-2H-pyran-4-yl)-1,4-diazepan-1-yl)pyridin-3-yl)pyrimidin-2-amine] belongs less than 0.01 µM. The figure for `CCn1cc(Nc2ncc(-c3ccc(Cl)c(O[C@@H](C)Cn4cnnn4)c3)cn2)c(N2CCC2)n1` [Example 668, (S)-5-(3-((1-(1H-tetrazol-1-yl)propan-2-yl)oxy)-4-chlorophenyl)-N-(3-(azetidin-1-yl)-1-ethyl-1H-pyrazol-4-yl)pyrimidin-2-amine] is not below 0.1 µM. To `CCn1cc(Nc2ncc(-c3ccc(Cl)c(O[C@@H](C)Cn4cnnn4)c3)cn2)c(N2CCCC2)n1` [Example 669, (S)-5-(3-((1-(1H-tetrazol-1-yl)propan-2-yl)oxy)-4-chlorophenyl)-N-(1-ethyl-3-(pyrrolidin-1-yl)-1H-pyrazol-4-yl)pyrimidin-2-amine] belongs 0.01 to 0.1 µM; to `C[C@@H](Cn1cnnn1)Oc1cc(-c2cnc(Nc3cn(C4CCC(O)CC4)nc3C(F)(F)F)nc2)ccc1Cl` (stereo partly drawn) [Example 670, (S)-4-(4-((5-(3-((1-(1H-tetrazol-1-yl)propan-2-yl)oxy)-4-chlorophenyl)pyrimidin-2-yl)amino)-3-(trifluoromethyl)-1H-pyrazol-1-yl)cyclohexan-1-ol], 0.01 to 0.1 µM.

In the case of `COc1nc(N2CCN(C3CC3)CC2)ccc1Nc1ncc(-c2ccc(Cl)c(O[C@@H](C)Cn3cnnn3)c2)cn1` [Example 671, (S)-5-(3-((1-(1H-tetrazol-1-yl)propan-2-yl)oxy)-4-chlorophenyl)-N-(6-(4-cyclopropylpiperazin-1-yl)-2-methoxypyridin-3-yl)pyrimidin-2-amine], the half-maximal inhibitory concentration (IC50) is less than 0.01 µM. To `COc1cc(N2CCN3CCCC3C2)ccc1Nc1ncc(-c2ccc(Cl)c(O[C@@H](C)Cn3cnnn3)c2)cn1` (stereo partly drawn) [Example 672, 5-(3-(((S)-1-(1H-tetrazol-1-yl)propan-2-yl)oxy)-4-chlorophenyl)-N-(4-(hexahydropyrrolo[1,2-a]pyrazin-2(1H)-yl)-2-methoxyphenyl)pyrimidin-2-amine] belongs less than 0.01 µM. To `COc1cc(N2CCN3CCOCC3C2)ccc1Nc1ncc(-c2ccc(Cl)c(O[C@@H](C)Cn3cnnn3)c2)cn1` (stereo partly drawn) [Example 673, 5-(3-(((S)-1-(1H-tetrazol-1-yl)propan-2-yl)oxy)-4-chlorophenyl)-N-(4-(hexahydropyrazino[2,1-c][1,4]oxazin-8(1H)-yl)-2-methoxyphenyl)pyrimidin-2-amine] belongs less than 0.01 µM; to `CCn1cc(Nc2ncc(-c3ccc(Cl)c(O[C@@H](C)Cn4cnnn4)c3)cn2)c(C(F)(F)F)n1` [Example 674, (S)-5-(3-((1-(1H-tetrazol-1-yl)propan-2-yl)oxy)-4-chlorophenyl)-N-(1-ethyl-3-(trifluoromethyl)-1H-pyrazol-4-yl)pyrimidin-2-amine], 0.01 to 0.1 µM; to `C[C@@H](Cn1cnnn1)Oc1cc(-c2cnc(Nc3cn(C4CCN(C(=O)OC(C)(C)C)CC4)nc3OCC(F)(F)F)nc2)ccc1Cl` [Example 675, tert-butyl (S)-4-(4-((5-(3-((1-(1H-tetrazol-1-yl)propan-2-yl)oxy)-4-chlorophenyl)pyrimidin-2-yl)amino)-3-(2,2,2-trifluoroethoxy)-1H-pyrazol-1-yl)piperidine-1-carboxylate], 0.01 to 0.1 µM.
